Source: patent US4695622A, “Hexapeptide” (Vsesojuzny Kardiologichesky Nauchny Tsentr Akademii …, priority 1984, dated 1987)
Residues, ends and D or L forms follow the SMILES beside them.

Experiments:
[1] = tested on: experimental hemorrhagic pancreonecrosis; experiment: Morphological studies of the pancreas in experimental hemorrhagic pancreonecrosis; assay type: in vivo, dogs; settings: for Morphology of pancreas, early stages of treatment: tracilol 10,000 units per hour, hexapeptide 0.3 mg/kg
Procedure: (§1) The biological activity of the hexapeptide according to the present invention has been studied in experiments on dogs using an experimental acute pancreatitis model.
(§2) To this end, a similar operation was performed on 10 dogs. Under hexenal narcosis upper-median laparotomy was made. Into the wound a loop of duodenum was introduced with pancreas, cannulated and Wirsung's duct was dressed on a drain Snatorini's duct was additionally dressed too. Then the gall-bladder was punctured, bile was extracted therefrom and injected under pressure into Wirsung's duct at the rate of 0.5 ml per kg of the animal's bodyweight. As a stimulant of the pancreas secretion secretin and cholecystopancreoziimin were used which were intravenously administered at the rate of two units per kg of a dog's bodyweight. For administration of the stimulants of the pancreatic secretion, the hexapeptide according to the present invention and obtaining blood, the femoral vein was catheterized. For the measurement of diuresis and urine examination epicystostomy was effected or both ureters were catheterized. All the experiments were carried out on an empty stomach of the animals.
Three dogs were used in the control group of the experiments. They were treated to induce an experimental pancreatitis only without administration of the hexapeptide according to the present invention; an acute experiment lasted for 6-8 hours, whereafter the dogs were slaughtered by intracardiac administration of hexenal.
(§3) 30 minutes after the administration of bile into Wirsung's duct and then every 2 hours small pieces of pancreas tissue were taken from the animals from various sections for morphological investigations. In the second series of experiments 5 dogs were used. A hemorrhagic pancreonecrosis was induced in them and 2 hours after the development of acute pancreatitis an intravenous administration of the hexapeptide according to the present invention was started at the rate of 0.3 mg per kg of the animal's bodyweight. For enzymological and morphological studies the same biological samples and pieces of tissues of the pancreas were taken. The dogs were slaughtered 6-8 hours after the beginning of the experiment.
(§4) In the third series of experiments two dogs were used. The induced experimental pancreatitis was treated by means of the hexapeptide according to the present invention. The same tests were performed, but the dogs were not slaughtered. 24 hours from the beginning of the experiment and then 7 days and 15 days thereafter they were subjected to relaparotomy, the macroscopic view of pancreas was studied, pieces of the tissue of pancreas were taken for morphological studies.
(§5) The effect of the hexapeptide according to the present invention was compared with that of widely employed preparations--5-fluorouracyl an d tracilol--on the same model of acute pancreatitis.

[2] = tested on: experimental hemorrhagic pancreonecrosis; experiment: Enzymatic activity in blood serum in experimental hemorrhagic pancreonecrosis (acute pancreatitis model); assay type: in vivo, dogs
Procedure: as §1, §2
Prior to introduction of bile into Wirsung's duct, background samples of blood, urina and pancreatic juice were taken for special enzymological investigations. After administration of bile into Wirsung's duct the same biological tests were carried out every hour until the experiment was completed. The activity of the following pancreatic enzymes was studied: α-amylase, lipase, total esterase activity, antitryptic activity.
as §3, §4, §5

Acute toxicity (LD50) = settings: for LD50: acute toxicity, dose causing death of 50% of the animals; for LD50 surpasses the therapeutic dose by: therapeutic dose: 5-fluorouracyl 5 mg/kg, hexapeptide 0.3 mg/kg
Solubility of the powder = assay type: physicochemical
Procedure: The hexapeptide according to the present invention comprises a white powder, well soluble in distilled water, a physiological solution, ethanol; insoluble in ether, ethylacetate, benzene. The melting temperature is 173°-176° C. [α]D^22 =-19.1 (c 0.33 H2 O).

[3] = Effect on cell formula of the blood and immune system; settings: in vivo
[4] = dogs, developed pancreonecrosis, hexapeptide 0.3 mg/kg

## O=c1[nH]cc(F)c(=O)[nH]1 [5-fluorouracyl, reference compound]
[1]; dogs, 5-fluorouracyl 5 mg/kg
  Morphology of pancreas 7 days after the beginning of the treatment: pronounced fibrosis of the pancreas with breaking of lobules into fragments
  Morphology of pancreas, early stages of treatment: noticeable inflammatory infiltration of necrotic zones and of the interstice is retained
[1]; dogs, 5-fluorouracyl 5 mg/kg, later stages of treatment
  Regeneration of the pancreas: incomplete
[2]; dogs (3), 5-fluorouracyl 5 mg/kg i.v., after 4 hours, value for developed pancreonecrosis 0.58 ± 0.07
  Total esterase activity in blood serum: 0.56 ± 0.02 μM/ml
[2]; dogs (3), 5-fluorouracyl 5 mg/kg i.v., after 4 hours, value for developed pancreonecrosis 0.62 ± 0.12
  Activity of lipase in blood serum: 0.48 ± 0.02 units
[2]; dogs (3), 5-fluorouracyl 5 mg/kg i.v., after 4 hours, value for developed pancreonecrosis 22.2 ± 1.4
  Antitryptic activity in blood serum: 20.1 ± 1.2 IU
[2]; dogs (3), 5-fluorouracyl 5 mg/kg i.v., after 4 hours, value for developed pancreonecrosis 158.0 ± 18.2
  Activity of alpha-amylase in blood serum: 152.2 ± 24.1 mg/h · ml
[2]; dogs (3), 5-fluorouracyl 5 mg/kg i.v., after 6 hours, value for developed pancreonecrosis 0.58 ± 0.07
  Total esterase activity in blood serum: 0.58 ± 0.04 μM/ml
[2]; dogs (3), 5-fluorouracyl 5 mg/kg i.v., after 6 hours, value for developed pancreonecrosis 0.62 ± 0.12
  Activity of lipase in blood serum: 0.54 ± 0.08 units
[2]; dogs (3), 5-fluorouracyl 5 mg/kg i.v., after 6 hours, value for developed pancreonecrosis 22.2 ± 1.4
  Antitryptic activity in blood serum: 20.1 ± 1.2 IU
[2]; dogs (3), 5-fluorouracyl 5 mg/kg i.v., after 6 hours, value for developed pancreonecrosis 158.0 ± 18.2
  Activity of alpha-amylase in blood serum: 153.3 ± 17.1 mg/h · ml
[2]; dogs, developed pancreonecrosis, 5-fluorouracyl 5 mg/kg, tracilol 10,000 units/hour
  Characteristics of activity of enzymes in blood serum (lipase, esterase, antitryptic), in words: remain substanctially unchanged
Acute toxicity (LD50)
  LD50: 750 mg/kg
  LD50 surpasses the therapeutic dose by: 150 times

## CC(C)C[C@H](NC(=O)[C@H](Cc1ccccc1)NC(=O)CNC(=O)[C@H](C)NC(=O)[C@@H](N)Cc1ccc(O)cc1)C(=O)N[C@@H](CCCNC(=N)N)C(=O)O [Tyrosyl-alanyl-glycyl-phenylalanyl-leucyl-arginine] (H-YAGFLR-OH)
[1]; dogs, hexapeptide i.v.
  Morphology of hemorrhagic pancreonecrosis one day after the treatment: positive dynamics
[1]; dogs, hexapeptide, 14 days after the beginning of the treatment
  Regeneration of the acinar tissue: complete regeneration of the acinar tissue
[1]; dogs, 5-fluorouracyl 5 mg/kg
  Morphology of pancreas, early stages of treatment: absence of signs of hemorrhagic zones of necrosis and hemorrhages into the interstice
[1]; overall conclusion
  Antipancreonecrotic activity: exhibits an antipancreonecrotic activity
[2]; dogs (7), hexapeptide 0.3 mg/kg i.v., after 4 hours, value for developed pancreonecrosis 0.76 ± 0.05
  Total esterase activity in blood serum: 0.16 ± 0.08 μM/ml
[2]; dogs (7), hexapeptide 0.3 mg/kg i.v., after 4 hours, value for developed pancreonecrosis 1.15 ± 0.03
  Activity of lipase in blood serum: 0.25 ± 0.02 units
[2]; dogs (7), hexapeptide 0.3 mg/kg i.v., after 4 hours, value for developed pancreonecrosis 26.5 ± 1.3
  Antitryptic activity in blood serum: 78.0 ± 13.1 IU
[2]; dogs (7), hexapeptide 0.3 mg/kg i.v., after 4 hours, value for developed pancreonecrosis 178 ± 28.2
  Activity of alpha-amylase in blood serum: 246.2 ± 26.7 mg/n · ml
[2]; dogs (7), hexapeptide 0.3 mg/kg i.v., after 6 hours, value for developed pancreonecrosis 0.76 ± 0.05
  Total esterase activity in blood serum: 0.20 ± 0.09 μM/ml
[2]; dogs (7), hexapeptide 0.3 mg/kg i.v., after 6 hours, value for developed pancreonecrosis 1.15 ± 0.03
  Activity of lipase in blood serum: 0.40 ± 0.05 units
[2]; dogs (7), hexapeptide 0.3 mg/kg i.v., after 6 hours, value for developed pancreonecrosis 26.5 ± 1.3
  Antitryptic activity in blood serum: 72.0 ± 2.5 IU
[2]; dogs (7), hexapeptide 0.3 mg/kg i.v., after 6 hours, value for developed pancreonecrosis 178 ± 28.2
  Activity of alpha-amylase in blood serum: 258.2 ± 33.2 mg/n · ml
[2]; [4]
  Activity of lipase in blood serum (in words): sharply reduced
  Increase of the antitryptic activity (in words): three-time increase
  Total esterase activity of blood (in words): lowered
[2]; dogs, hexapeptide
  Synthesis of pancreatic enzymes in acute pancreatitis: effectively inhibits
Acute toxicity (LD50)
  LD50: 150 mg/kg
  LD50 surpasses the therapeutic dose by: 500 times
Solubility of the powder; benzene
  Solubility: insoluble
Solubility of the powder; distilled water
  Solubility: well soluble
Solubility of the powder; ethanol
  Solubility: well soluble
Solubility of the powder; ether
  Solubility: insoluble
Solubility of the powder; ethylacetate
  Solubility: insoluble
Solubility of the powder; physiological solution
  Solubility: well soluble
[3]
  Cell formula of the blood: does not change the cell formula of the blood
  Pathological responses on the part of the immune system: does not cause pathological responses
  Processes of homeopoiesis: does not inhibit the processes of homeopoiesis
